Experimental data as given in patent US11696928B2, “Compounds and use thereof in the expansion of stem cells and/or progenitor cells” (UNIVERSITE DE MONTREAL, priority 2017, dated 2023).

Assays:
[1] = target: T1, AhR (Homo sapiens, UniProt P35869); assay: Inhibition of AhR-mediated gene transcription (HEK-XRE 11.1 luciferase reporter, MeBIO induction); assay type: cell-based; conditions: HEK-XRE 11.1 cells, MeBIO 0.1 nM, luminescence after 24 hours; Table 1
T1 construct: One of the resultant clones was named HEK-XRE 11.1, and used in the reporter gene assays; endogenous in cells; host or cells: HEK-XRE 11.1 (HEK cells stably carrying the AhR-responsive luciferase reporter X4-4.27 and phRL-CMV)
T1 sequence (P35869 11-848): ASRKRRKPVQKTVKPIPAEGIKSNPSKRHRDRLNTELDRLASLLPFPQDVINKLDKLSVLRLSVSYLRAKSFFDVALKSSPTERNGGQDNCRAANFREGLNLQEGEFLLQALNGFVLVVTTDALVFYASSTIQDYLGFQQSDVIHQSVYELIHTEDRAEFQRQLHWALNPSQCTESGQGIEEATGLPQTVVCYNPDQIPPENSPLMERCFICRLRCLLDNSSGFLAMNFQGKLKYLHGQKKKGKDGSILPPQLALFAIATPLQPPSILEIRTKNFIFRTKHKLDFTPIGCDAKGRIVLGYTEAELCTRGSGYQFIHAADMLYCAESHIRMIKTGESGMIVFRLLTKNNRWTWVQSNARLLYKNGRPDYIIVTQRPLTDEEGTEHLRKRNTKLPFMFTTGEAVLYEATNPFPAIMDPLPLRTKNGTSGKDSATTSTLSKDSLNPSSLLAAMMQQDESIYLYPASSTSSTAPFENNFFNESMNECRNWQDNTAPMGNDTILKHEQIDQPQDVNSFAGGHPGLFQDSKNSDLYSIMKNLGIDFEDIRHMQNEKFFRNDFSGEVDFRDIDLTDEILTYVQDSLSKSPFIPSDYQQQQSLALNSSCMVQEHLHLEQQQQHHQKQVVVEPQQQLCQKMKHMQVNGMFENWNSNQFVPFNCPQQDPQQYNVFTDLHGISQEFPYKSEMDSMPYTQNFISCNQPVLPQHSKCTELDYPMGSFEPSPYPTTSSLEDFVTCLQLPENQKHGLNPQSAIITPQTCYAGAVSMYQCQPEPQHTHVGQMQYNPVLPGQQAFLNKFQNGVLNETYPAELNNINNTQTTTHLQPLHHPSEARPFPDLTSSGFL
Method: HEK cells line was transfected with an AhR-responsive firefly luciferase reporter gene X4-4.27 and the stable transfectants generated were again transfected with phRL-CMV (a Renilla luciferase expression vector; Promega) along with pBAsi-hU6 Pur DNA (a plasmid carrying the puromycin-resistant gene; TaKaRa, Shiga, Japan), and maintained in the presence of both hygromycin B and puromycin (2 mg/mL). One of the resultant clones was named HEK-XRE 11.1, and used in the reporter gene assays.
HEK-XRE 11.1 cells were plated in 384-well plates at a density of 25,000 cells in 50 uL volume per well. The induction of ARh pathway was done by addition of MeBIO at 0.1 nM concentration. ARh antagonist compounds were then added to seeded cells in serial dilutions (8 dilutions, 1:[…] down to 5 nM) in duplicate wells. Renilla expression was not used as internal control. On each plate, Compound 1001 and SR1 were added as dose control (8 dilutions, 1:3, 5 mM down to 2.5 nM for SR1 and 2 mM down to 1 nM for compound 1001). Luminescence activity was evaluated after 24 hours culture using Lumi-384-CellTiterGlo-Corning protocol. Dose-response curves were generated using nonlinear regression in Excel.

[2] = test system: Human CD34+ cord blood (CB) cells; assay: CD34+ activity assessment (7-day expansion of pre-expanded CD34+ cells, flow cytometry); assay type: cell-based; conditions: concentration at which compound/vehicle ratio of CD34+ cell number is >= 1.5; 7 days, with 35 nM UM0128171; Table 1
Method: Human CD34+ cord blood (CB) cells were isolated from fresh units using RosetteSep™ 0034 pre-enrichment cocktail followed by CD34 positive selection using EasySep Kit™ (StemCell Technologies). The cells were then pre-expanded in bulk, by culturing at 37° C. for 6 days in HSC expansion media consisting of StemSpan ACF (StemCell Technologies) supplemented with 100 ng/mL Stem Cell Factor (SCF, Shenandoah), 100 ng/mL FMS-like Tyrosine Kinase 3 Ligand (FLT3L, Shenandoah), 50 ng/mL Thrombopoietin (TPO, Shenandoah), 2 mM GlutaMAX™ (Invitrogen), 10 μg/mL low density lipoproteins (LDL, StemCell Technologies), 10 μg/mL Ciprofloxacin and 35 nM UM0128171. […] Following the pre-expansion, cells were harvested, aliquoted and frozen until use.
For each activity assessment, CD34+ pre-expanded cells (approximately 2000 per well in a 384-well plate) were cultured in HSC expansion media, in the presence of 35 nM UM0128171. Compounds were serially diluted (1/2) in DMSO (10 dilutions per compound) and added to the cells in order to achieve a 1/1000 final dilution. StemRegenin1 (SR1) and/or Compound 1001 were included in all experiments as controls to monitor assay performance. The plate was incubated at 37° C. for 7 days in static conditions (i.e. no shaking and no addition of media). Flow cytometry analysis was performed at the end of the 7-day expansion. Cells were stained with PE-labeled anti-human CD45RA (BD Biosciences) and APC-labeled anti-human CD34 (BD Biosciences) and analyzed using Intellicyt IQue cytometer equipped with ForeCyt software. Gates were drawn around the populations of interest to obtain cell numbers and relative proportions. The EC1.5 value, which is the concentration at which the compound/vehicle ratio is greater or equal to 1.5, was calculated by plotting the CD34+ cell number against concentrations (log-scale) in a 4-PL curve and fitting the curve using IDBS XLfit (set model 251) in Microsoft Excel.

SMILES | IC50 [1] [nM] | EC1.5 [2] [nM]
Nc1c(C(=O)Nc2ccc(F)cc2)sc2ccc(C(F)(F)F)cc12 [Compound 1089] | < 50 | 100 to 1000
Nc1c(C(=O)Nc2ccccc2)sc2ncc(C3CC3)cc12 [Compound 1091] | 50 to 500 | 100 to 1000
Nc1c(C(=O)Nc2ccc(Oc3ccccc3)cc2)sc2ncc(C(F)(F)F)cc12 [Compound 1092] | 50 to 500 | 100 to 1000
Nc1c(C(=O)Nc2cccc(Cl)c2)sc2ncc(C(F)(F)F)cc12 [Compound 1093] | < 50 | <100
Cc1cccc(NC(=O)c2sc3ncc(C(F)(F)F)cc3c2N)c1 [Compound 1094] | < 50 | <100
Nc1c(C(=O)Nc2ccc(Cl)c(Cl)c2)sc2ncc(C(F)(F)F)cc12 [Compound 1095] | 50 to 500 | 100 to 1000
Cc1cc(NC(=O)c2sc3ncc(C(F)(F)F)cc3c2N)ccc1Cl [Compound 1096] | 50 to 500 | 1000 to 5000
Nc1c(C(=O)Nc2ccc(Cl)c(O)c2)sc2ncc(C(F)(F)F)cc12 [Compound 1097] | > 500 | 1000 to 5000
Nc1c(C(=O)Nc2ccc3c(c2)OCO3)sc2ncc(C(F)(F)F)cc12 [Compound 1098] | 50 to 500 | <100
Nc1c(C(=O)Nc2ccc3c(c2)OCCO3)sc2ncc(C(F)(F)F)cc12 [Compound 1099] | 50 to 500 | <100
Nc1c(C(=O)Nc2ccsc2)sc2ncc(C(F)(F)F)cc12 [Compound 1100] | < 50 | <100
Cc1nc2cc(NC(=O)c3sc4ncc(C(F)(F)F)cc4c3N)ccc2s1 [Compound 1101] | < 50 | 100 to 1000
Nc1c(C(=O)Nc2ccncn2)sc2ncc(C(F)(F)F)cc12 [Compound 1102] | 50 to 500 | >5000
Nc1c(C(=O)Nc2ccccc2)sc2nc3c(cc12)CCCC3 [Compound 1104] | 50 to 500 | 100 to 1000
COc1ccc(NC(=O)c2sc3nc4c(cc3c2N)CCCC4)cc1 [Compound 1105] | 50 to 500 | >5000
Nc1c(C(=O)Nc2ccc(F)cc2)sc2nc3c(cc12)CCCC3 [Compound 1106] | 50 to 500 | 1000 to 5000
Nc1c(C(=O)Nc2ncccn2)sc2ncc(C(F)(F)F)cc12 [Compound 1107] | < 50 | 1000 to 5000
Nc1c(C(=O)Nc2cncnc2)sc2ncc(C(F)(F)F)cc12 [Compound 1109] | > 500 | >5000
Nc1c(C(=O)Nc2ccc3[nH]ncc3c2)sc2ncc(C(F)(F)F)cc12 [Compound 1110] | 50 to 500 | >5000
Nc1c(C(=O)Nc2ccccc2)sc2nc3c(cc12)CCCCC3 [Compound 1113] | 50 to 500 | 1000 to 5000
Cc1cnc2sc(C(=O)Nc3ccc(F)cc3)c(N)c2c1 [Compound 1115] | < 50 | <100
COc1ccc(NC(=O)c2sc3ccc(C(F)(F)F)nc3c2N)cc1 [Compound 1116] | 50 to 500 | 100 to 1000
Nc1c(C(=O)Nc2ccc(F)cc2)sc2ccc(C(F)(F)F)nc12 [Compound 1117] | < 50 | 100 to 1000

SMILES | IC50 [1] [nM] | EC1.5 [2] [nM]
COc1ccc(NC(=O)c2sc3ccc(C)cc3c2N)cc1 [Compound 1119] | 50 to 500 | 100 to 1000
Cc1ccc2sc(C(=O)Nc3ccc(F)cc3)c(N)c2c1 [Compound 1120] | < 50 | <100
COc1cc(NC(=O)c2sc3ncc(C(F)(F)F)cc3c2N)ccc1F [Compound 1121] | 50 to 500 | 100 to 1000
CCOc1ccc(NC(=O)c2sc3ncc(C(F)(F)F)cc3c2N)cc1 [Compound 1122] | < 50 | <100
NC(=O)c1ccc(NC(=O)c2sc3ncc(C(F)(F)F)cc3c2N)cc1 [Compound 1123] | 50 to 500 | >5000
CNC(=O)c1ccc(NC(=O)c2sc3ncc(C(F)(F)F)cc3c2N)cc1 [Compound 1124] | 50 to 500 | 100 to 1000
COC(=O)c1ccc(NC(=O)c2sc3ncc(C(F)(F)F)cc3c2N)cc1 [Compound 1125] | 50 to 500 | 100 to 1000
CN(C)c1ccc(NC(=O)c2sc3ncc(C(F)(F)F)cc3c2N)cc1 [Compound 1126] | 50 to 500 | 1000 to 5000
Nc1c(C(=O)Nc2ccc(S(N)(=O)=O)cc2)sc2ncc(C(F)(F)F)cc12 [Compound 1127] | 50 to 500 | >5000
COc1ccc(NC(=O)c2sc3ccc(C)nc3c2N)cc1 [Compound 1129] | 50 to 500 | 100 to 1000
Cc1ccc2sc(C(=O)Nc3ccc(Cl)cc3)c(N)c2c1 [Compound 1130] | 50 to 500 | >5000
Cc1ccc(NC(=O)c2sc3ccc(C)cc3c2N)cc1 [Compound 1131] | 50 to 500 | >5000
Cc1ccc2sc(C(=O)Nc3ccc(Br)cc3)c(N)c2c1 [Compound 1132] | 50 to 500 | >5000
COc1ccc(NC(=O)c2sc3ncc(C)cc3c2N)cc1Cl [Compound 1135] | < 50 | <100
COc1ccc(NC(=O)c2sc3ccc(C(F)(F)F)cc3c2N)cc1Cl [Compound 1136] | < 50 | >5000
Cc1cnc2sc(C(=O)Nc3ccc(C(F)(F)F)cc3)c(N)c2c1 [Compound 1137] | < 50 | <100
Nc1c(C(=O)Nc2ccc(C(F)(F)F)cc2)sc2ccc(C(F)(F)F)cc12 [Compound 1138] | 50 to 500 | >5000
Cc1cnc2sc(C(=O)Nc3cccc(Cl)c3)c(N)c2c1 [Compound 1139] | < 50 | 100 to 1000
Cc1cccc(NC(=O)c2sc3ncc(C)cc3c2N)c1 [Compound 1140] | 50 to 500 | 100 to 1000
Cc1cnc2sc(C(=O)Nc3ccc4c(c3)OCCO4)c(N)c2c1 [Compound 1141] | 50 to 500 | 100 to 1000
CCOc1ccc(NC(=O)c2sc3ncc(C)cc3c2N)cc1 [Compound 1142] | < 50 | 100 to 1000
CSc1ccc(NC(=O)c2sc3ncc(C)cc3c2N)cc1 [Compound 1143] | < 50 | <100
